Assays:
Aromatase / CYP19A1 = Aromatase / CYP19A1 (Homo sapiens, UniProt P11511); experiment: Eurofins CYP450 inhibition, dibenzyl fluorescein substrate; type: biochemical; conditions: 10 μM 2AP
CYP2C19 = CYP2C19 (Homo sapiens, UniProt P33261); experiment: Eurofins CYP450 inhibition, 3-Cyano-7-ethoxycoumarin substrate; type: in vitro ADME; conditions: recombinant CYP2C19, probe 3-cyano-7-ethoxycoumarin, 10 μM 2AP
CYP2C8 = CYP2C8 (Homo sapiens, UniProt P10632); experiment: Eurofins CYP450 inhibition, dibenzyl fluorescein substrate; type: in vitro ADME; conditions: recombinant CYP2C8, probe dibenzyl fluorescein, 10 μM 2AP
CYP2C9 = CYP2C9 (Homo sapiens, UniProt P11712); experiment: Eurofins CYP450 inhibition, 3-Cyano-7-ethoxycoumarin substrate; type: in vitro ADME; conditions: recombinant CYP2C9, probe 3-cyano-7-ethoxycoumarin, 10 μM 2AP
CYP2D6 = CYP2D6 (Homo sapiens, UniProt P10635); experiment: as above; type: in vitro ADME; conditions: recombinant CYP2D6, probe 3-cyano-7-ethoxycoumarin, 10 μM 2AP
Adenosine A1 = Adenosine A1 (Homo sapiens, UniProt P30542); experiment: Eurofins radioligand receptor binding inhibition; parameters: dose or concentration left out as unconfirmed
Adenosine A2A = Adenosine A2A (Homo sapiens, UniProt P29274); experiment: Eurofins radioligand receptor binding inhibition; conditions: 10 μM 2AP
Adrenergic α1A = Adrenergic α1A (Rattus norvegicus, UniProt P43140); experiment: Eurofins radioligand receptor binding inhibition; conditions: 10 μM 2AP
Adrenergic α1B = Adrenergic α1B (Rattus norvegicus, UniProt P15823); experiment: Eurofins radioligand receptor binding inhibition; conditions: 10 μM 2AP
Adrenergic α2A = Adrenergic α2A (Homo sapiens, UniProt P08913); experiment: Eurofins radioligand receptor binding inhibition; conditions: 10 μM 2AP
[1] = tested on: Calcium Channel L-Type, Dihydropyridine; experiment: Eurofins radioligand receptor binding inhibition; conditions: 10 μM 2AP
Cannabinoid CB1 = Cannabinoid CB1 (Homo sapiens, UniProt P21554); experiment: Eurofins radioligand receptor binding inhibition; parameters: dose or concentration left out as unconfirmed
GABAA Flunitrazepam = experiment: Eurofins radioligand receptor binding inhibition; conditions: 10 μM 2AP
GABAA Muscimol = experiment: Eurofins radioligand receptor binding inhibition; conditions: 10 μM 2AP
Glutamate = experiment: Eurofins radioligand receptor binding inhibition; conditions: 10 μM 2AP
Imidazoline I2, Central = experiment: Eurofins radioligand receptor binding inhibition; conditions: 10 μM 2AP
Muscarinic M2 = Muscarinic M2 (Homo sapiens, UniProt P08172); experiment: Eurofins radioligand receptor binding inhibition; parameters: dose or concentration left out as unconfirmed
Muscarinic M3 = Muscarinic M3 (Homo sapiens, UniProt P20309); experiment: Eurofins radioligand receptor binding inhibition; conditions: 10 μM 2AP
[2] = target: Nicotinic Acetylcholine α1, Bungarotoxin (Homo sapiens, UniProt P02708+P07510+Q07001); experiment: biochemical; type: binding; parameters: dose or concentration left out as unconfirmed
Opiate μ (OP3, MOP) = Opiate μ (OP3, MOP) (Homo sapiens, UniProt P35372); experiment: Eurofins radioligand receptor binding inhibition; parameters: dose or concentration left out as unconfirmed
hERG potassium channel = hERG potassium channel (Homo sapiens, UniProt Q12809); experiment: Eurofins radioligand receptor binding inhibition; conditions: 10 μM 2AP
Prostanoid EP4 = Prostanoid EP4 (Homo sapiens, UniProt P35408); experiment: Eurofins radioligand receptor binding inhibition; conditions: 10 μM 2AP
Norepinephrine (NET) = Norepinephrine (NET) (Homo sapiens, UniProt P23975); experiment: Eurofins radioligand receptor binding inhibition; conditions: 10 μM 2AP
Method: (§1) CYP450 enzymes and a panel of receptors were assessed for inhibition by 10 μM 2AP using HitProfilingScreen + CYP450 LeadHunter Panel at Eurofins (Eurofins Panlabs Discovery Services, New Taipei City, Taiwan). Briefly, human recombinant CYP450 enzymes were preincubated at 37°C for 15 minutes with 10 μM 2AP. Enzyme activity was assessed by cleavage of the CYP450 fluorogenic substrates dibenzyl fluorescein (aromatase / CYP19A1, CYP2C8), 3-Cyano-7-ethoxycoumarin (CYP1A2, CYP2B6, CYP2C19, CYP2C9, and CYP2D6), or 7-Benzyloxy-4-(trifluoromethyl)-coumarin (CYP3A4), as described previously. Inhibition of receptor binding was assessed using a panel of receptors expressed on cell lines or using tissue extracts and preincubated at 25°C for 30–120 minutes with 10 μM 2AP. Cells or tissue extracts were then incubated with radiolabeled specific ligands a described (https://www.eurofinsdiscovery.com/catalog/hitprofilingscreen-cyp450-leadhunter-panel-tw/PP115) and inhibition of binding was reported (S2 Table).

[3] = target: Serotonin (5-Hydroxytryptamine) 5-HT2B (Homo sapiens, UniProt P41595); experiment: Eurofins radioligand receptor binding inhibition; conditions: 10 μM 2AP
Method: as §1

Sodium Channel, Site 2 = experiment: Eurofins radioligand receptor binding inhibition; conditions: 10 μM 2AP
28 receptors = experiment: Eurofins panel of 28 receptors, inhibition of binding; conditions: 10 μM 2AP
human recombinant NEU3 = tested on: human recombinant NEU3; parameters: method as in PMID 33144389; conditions: human recombinant NEU3; pH 6.9; read-out: IC50, inhibition of release of active TGF-β1 from human latent TGF-β1; cited from earlier work
mouse recombinant NEU3 = tested on: mouse recombinant NEU3; parameters: method as in PMID 33144389; conditions: pH 6.9, read-out: IC50, inhibition of release of active TGF-β1 from human latent TGF-β1; cited from earlier work
[4] = tested on: bleomycin-induced pulmonary fibrosis; conditions: injections; male mice; cited from earlier work

Chain of Adenosine A2A (P29274 whole entry): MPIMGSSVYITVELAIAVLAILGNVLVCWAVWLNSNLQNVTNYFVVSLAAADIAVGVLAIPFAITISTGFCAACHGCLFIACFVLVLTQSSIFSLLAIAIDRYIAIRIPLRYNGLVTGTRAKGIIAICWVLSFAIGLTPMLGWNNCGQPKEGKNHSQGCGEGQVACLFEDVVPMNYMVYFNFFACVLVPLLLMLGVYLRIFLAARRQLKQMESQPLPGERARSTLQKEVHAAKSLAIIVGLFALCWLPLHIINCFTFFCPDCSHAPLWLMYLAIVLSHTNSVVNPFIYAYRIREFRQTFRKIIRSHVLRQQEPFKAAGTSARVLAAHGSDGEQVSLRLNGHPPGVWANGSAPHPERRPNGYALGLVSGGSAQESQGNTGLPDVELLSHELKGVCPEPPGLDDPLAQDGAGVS
Chain of Prostanoid EP4 (P35408 whole entry): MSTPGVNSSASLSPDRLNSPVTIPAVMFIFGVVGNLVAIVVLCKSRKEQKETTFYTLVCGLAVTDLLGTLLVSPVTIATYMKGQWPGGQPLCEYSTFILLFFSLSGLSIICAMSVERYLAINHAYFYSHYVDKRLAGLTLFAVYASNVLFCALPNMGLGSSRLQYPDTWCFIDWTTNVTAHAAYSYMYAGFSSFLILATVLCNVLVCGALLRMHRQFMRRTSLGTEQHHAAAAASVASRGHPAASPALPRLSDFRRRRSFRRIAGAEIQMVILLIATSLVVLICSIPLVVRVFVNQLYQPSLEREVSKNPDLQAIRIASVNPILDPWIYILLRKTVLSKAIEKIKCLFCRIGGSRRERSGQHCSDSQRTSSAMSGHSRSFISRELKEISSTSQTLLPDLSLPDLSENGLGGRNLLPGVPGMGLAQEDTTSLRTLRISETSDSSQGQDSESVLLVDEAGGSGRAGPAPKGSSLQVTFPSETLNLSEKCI
Chain of Serotonin (5-Hydroxytryptamine) 5-HT2B (P41595 whole entry): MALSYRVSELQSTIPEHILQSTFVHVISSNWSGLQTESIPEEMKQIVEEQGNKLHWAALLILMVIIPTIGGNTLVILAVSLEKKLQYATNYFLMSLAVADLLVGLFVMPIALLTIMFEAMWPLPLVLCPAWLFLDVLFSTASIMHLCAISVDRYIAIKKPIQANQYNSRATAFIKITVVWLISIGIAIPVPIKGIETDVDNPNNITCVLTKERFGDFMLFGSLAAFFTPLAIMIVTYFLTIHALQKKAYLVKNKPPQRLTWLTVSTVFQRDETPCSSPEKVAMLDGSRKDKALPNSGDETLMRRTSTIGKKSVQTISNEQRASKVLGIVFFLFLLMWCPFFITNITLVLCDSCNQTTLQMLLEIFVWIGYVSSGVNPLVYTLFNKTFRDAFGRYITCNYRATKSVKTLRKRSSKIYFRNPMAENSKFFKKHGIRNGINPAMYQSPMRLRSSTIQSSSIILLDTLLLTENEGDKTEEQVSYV
Chain of Adrenergic α1B (P15823 whole entry): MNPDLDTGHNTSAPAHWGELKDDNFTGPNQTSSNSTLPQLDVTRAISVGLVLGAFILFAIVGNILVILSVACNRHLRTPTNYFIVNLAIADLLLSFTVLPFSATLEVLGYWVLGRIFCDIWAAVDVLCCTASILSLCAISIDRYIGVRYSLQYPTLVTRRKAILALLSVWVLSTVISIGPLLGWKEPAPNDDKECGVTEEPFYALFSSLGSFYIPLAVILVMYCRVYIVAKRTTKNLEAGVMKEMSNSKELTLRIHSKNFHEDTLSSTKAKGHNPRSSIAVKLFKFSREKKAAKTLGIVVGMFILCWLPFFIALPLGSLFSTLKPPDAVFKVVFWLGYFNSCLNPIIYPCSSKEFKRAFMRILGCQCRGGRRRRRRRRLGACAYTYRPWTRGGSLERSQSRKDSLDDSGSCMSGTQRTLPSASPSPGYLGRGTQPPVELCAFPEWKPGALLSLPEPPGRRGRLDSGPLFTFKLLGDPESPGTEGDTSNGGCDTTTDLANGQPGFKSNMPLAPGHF
Chain of Norepinephrine (NET) (P23975 whole entry): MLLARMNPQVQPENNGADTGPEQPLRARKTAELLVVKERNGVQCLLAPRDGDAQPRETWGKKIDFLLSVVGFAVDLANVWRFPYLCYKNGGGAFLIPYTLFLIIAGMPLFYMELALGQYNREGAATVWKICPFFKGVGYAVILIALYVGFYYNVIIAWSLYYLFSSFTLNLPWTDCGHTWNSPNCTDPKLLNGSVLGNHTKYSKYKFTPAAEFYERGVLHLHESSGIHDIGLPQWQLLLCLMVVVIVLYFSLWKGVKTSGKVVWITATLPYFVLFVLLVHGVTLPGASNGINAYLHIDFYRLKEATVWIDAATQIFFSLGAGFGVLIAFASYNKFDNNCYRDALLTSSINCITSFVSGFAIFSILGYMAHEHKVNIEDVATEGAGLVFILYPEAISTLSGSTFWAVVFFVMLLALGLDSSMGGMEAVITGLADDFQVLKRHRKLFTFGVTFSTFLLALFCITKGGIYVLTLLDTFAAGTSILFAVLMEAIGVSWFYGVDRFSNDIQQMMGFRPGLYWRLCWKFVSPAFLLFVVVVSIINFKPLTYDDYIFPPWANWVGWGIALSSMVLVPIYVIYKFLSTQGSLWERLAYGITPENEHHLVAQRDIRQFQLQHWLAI
Chain of CYP2D6 (P10635 whole entry): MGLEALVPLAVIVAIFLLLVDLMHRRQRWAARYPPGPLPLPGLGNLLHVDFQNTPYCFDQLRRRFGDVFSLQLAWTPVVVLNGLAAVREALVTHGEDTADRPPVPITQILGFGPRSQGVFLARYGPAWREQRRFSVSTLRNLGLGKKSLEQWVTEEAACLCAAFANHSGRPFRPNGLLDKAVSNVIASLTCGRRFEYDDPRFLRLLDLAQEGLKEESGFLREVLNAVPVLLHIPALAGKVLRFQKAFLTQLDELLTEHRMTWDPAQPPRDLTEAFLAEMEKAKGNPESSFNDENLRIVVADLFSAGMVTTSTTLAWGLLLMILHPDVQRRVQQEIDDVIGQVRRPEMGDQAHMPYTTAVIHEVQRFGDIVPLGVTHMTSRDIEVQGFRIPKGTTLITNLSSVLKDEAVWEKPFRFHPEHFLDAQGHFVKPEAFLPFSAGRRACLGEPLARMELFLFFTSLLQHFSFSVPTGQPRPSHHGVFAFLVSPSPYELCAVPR
Chain of Adrenergic α2A (P08913 whole entry): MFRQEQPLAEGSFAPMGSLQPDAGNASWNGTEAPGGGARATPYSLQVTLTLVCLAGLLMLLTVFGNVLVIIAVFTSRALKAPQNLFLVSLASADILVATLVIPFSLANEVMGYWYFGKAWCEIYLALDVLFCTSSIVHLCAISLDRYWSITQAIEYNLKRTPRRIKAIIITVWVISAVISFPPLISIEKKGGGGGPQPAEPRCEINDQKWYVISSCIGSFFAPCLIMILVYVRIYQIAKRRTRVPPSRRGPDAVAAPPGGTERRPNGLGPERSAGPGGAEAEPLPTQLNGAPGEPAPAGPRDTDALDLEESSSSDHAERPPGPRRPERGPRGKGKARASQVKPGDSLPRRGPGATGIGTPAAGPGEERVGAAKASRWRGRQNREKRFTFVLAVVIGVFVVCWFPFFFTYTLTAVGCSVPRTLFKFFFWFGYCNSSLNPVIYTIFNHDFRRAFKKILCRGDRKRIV
Chain of hERG potassium channel (Q12809 whole entry): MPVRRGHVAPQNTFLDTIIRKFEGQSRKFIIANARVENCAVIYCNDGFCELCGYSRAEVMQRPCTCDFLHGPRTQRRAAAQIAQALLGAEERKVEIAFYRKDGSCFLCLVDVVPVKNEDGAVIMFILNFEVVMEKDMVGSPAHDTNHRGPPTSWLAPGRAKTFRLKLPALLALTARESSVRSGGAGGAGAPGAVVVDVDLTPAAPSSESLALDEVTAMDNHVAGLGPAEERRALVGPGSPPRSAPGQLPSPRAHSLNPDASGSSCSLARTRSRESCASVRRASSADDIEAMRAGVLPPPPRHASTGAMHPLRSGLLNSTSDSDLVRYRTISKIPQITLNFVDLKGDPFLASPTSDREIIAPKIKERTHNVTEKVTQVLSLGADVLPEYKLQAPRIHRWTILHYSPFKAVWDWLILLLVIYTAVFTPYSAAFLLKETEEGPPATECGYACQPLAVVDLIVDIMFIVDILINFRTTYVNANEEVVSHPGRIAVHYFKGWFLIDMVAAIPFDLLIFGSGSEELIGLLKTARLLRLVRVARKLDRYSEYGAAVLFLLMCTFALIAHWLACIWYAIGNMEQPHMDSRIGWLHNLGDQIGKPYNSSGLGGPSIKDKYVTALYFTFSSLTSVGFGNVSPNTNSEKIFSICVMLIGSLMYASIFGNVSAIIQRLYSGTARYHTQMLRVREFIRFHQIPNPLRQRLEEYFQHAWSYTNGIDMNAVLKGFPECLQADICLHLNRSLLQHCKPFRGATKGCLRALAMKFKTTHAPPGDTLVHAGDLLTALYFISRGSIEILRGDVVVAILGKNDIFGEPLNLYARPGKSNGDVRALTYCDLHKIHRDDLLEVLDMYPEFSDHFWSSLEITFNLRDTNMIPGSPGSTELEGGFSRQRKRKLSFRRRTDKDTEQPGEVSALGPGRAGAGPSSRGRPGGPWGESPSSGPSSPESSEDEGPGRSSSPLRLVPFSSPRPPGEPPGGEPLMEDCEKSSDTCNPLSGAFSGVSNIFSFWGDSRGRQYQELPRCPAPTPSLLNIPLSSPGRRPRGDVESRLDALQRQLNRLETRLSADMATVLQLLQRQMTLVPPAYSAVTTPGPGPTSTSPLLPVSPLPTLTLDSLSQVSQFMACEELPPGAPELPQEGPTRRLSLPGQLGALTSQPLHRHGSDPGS
Chain of Adenosine A1 (P30542 whole entry): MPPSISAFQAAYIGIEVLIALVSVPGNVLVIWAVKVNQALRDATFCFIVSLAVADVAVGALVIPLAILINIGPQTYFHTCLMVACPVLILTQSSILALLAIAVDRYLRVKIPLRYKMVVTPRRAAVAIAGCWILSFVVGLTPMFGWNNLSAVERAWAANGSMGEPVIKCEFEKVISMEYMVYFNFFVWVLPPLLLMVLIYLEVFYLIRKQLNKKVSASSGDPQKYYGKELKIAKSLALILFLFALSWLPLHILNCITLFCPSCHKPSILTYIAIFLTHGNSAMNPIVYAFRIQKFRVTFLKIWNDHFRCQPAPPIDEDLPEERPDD

## CC(=O)c1ccccn1 [2AP, 2-acetyl pyridine]
Aromatase / CYP19A1
  inhibition at 10 µM: 1%
CYP2C19
  inhibition at 10 µM: 3%
CYP2C8
  inhibition at 10 µM: 0%
CYP2C9
  inhibition at 10 µM: 1%
CYP2D6
  inhibition at 10 µM: 2%
Adenosine A1
  inhibition: 10%
Adenosine A2A
  inhibition at 10 µM: 0%
Adrenergic α1A
  inhibition at 10 µM: 5%
Adrenergic α1B
  inhibition at 10 µM: 2%
Adrenergic α2A
  inhibition at 10 µM: -5%
[1]
  % Inhibition: 7%
Cannabinoid CB1
  inhibition: -1%
GABAA Flunitrazepam
  % Inhibition: -2%
GABAA Muscimol
  % Inhibition: 4%
Glutamate
  % Inhibition: 27%
Imidazoline I2, Central
  % Inhibition: 3%
Muscarinic M2
  inhibition: 4%
Muscarinic M3
  inhibition at 10 µM: 1%
[2]
  inhibition: 5%
Opiate μ (OP3, MOP)
  inhibition: 0%
hERG potassium channel
  inhibition at 10 µM: 4%
Prostanoid EP4
  inhibition at 10 µM: 7%
Norepinephrine (NET)
  inhibition at 10 µM: 7%
[3]
  inhibition at 10 µM: 12%
Sodium Channel, Site 2
  % Inhibition: 13%
28 receptors
  inhibitory effect on an additional 28 receptors: no inhibitory effect
Human recombinant NEU3
  IC50: 40 ± 6 nM
Mouse recombinant NEU3
  IC50: 800 ± 170 nM
[4]
  pulmonary fibrosis: attenuate bleomycin-induced pulmonary fibrosis

Reference: publication PMC11581222, “Inhibition of CCl4-induced liver inflammation and fibrosis by a NEU3 inhibitor” (PLOS ONE, 2024)
